Data taken from patent US20250000835A1, “SYNERGIES OF 1- BETA-CARYOPHYLLENE, CANNABIDIOL AND TRIBUTYRIN; 2- RETINYL PALMITATE, BETA-CARYOPHYLLENE AND CANNABIDIOL; 3- RETINYL PALMITATE AND BETA-CARYOPHYLLENE IN CONTROLING INFLAMMATION, METABOLIC HEALTH, INSULIN SENSITIVITY/ GLYCEMIC - GLUCOSE UPTAKE & MANAGEMENT, AND FATTY LIVER/ NAFLD” (FLG Sciences, LLC, priority 2022, published 2025).

Key:
Type in all cases: cell-based
phosphorylated p65/NF-κB = assay: Inflammatory signaling (phosphorylated NF-kB) by Western blotting, C2C12 muscle cells; conditions: vs DMSO control
Experimental: (§1) There were two different treatment experiments including: Cells treated with compounds 1-5 above for 3 hours; Cells treated with compounds 1-5 above for 12 hours with a concomitant TNF-alpha treatment (15 ng/mL); Cell treatments were performed using C2C12 myotubes (muscle cells), and AML-12 cells (liver cells).
(§2) There are also combination formulations, where the following combination formulations were tested: 6) Control or “vehicle” (DMSO only); 7) Vitamin A, or “VitA” (1.2 μM)+Beta-caryophyllene (100 ng/mL)+Tributyrin (10 μM); 8) Vitamin A, or “VitA” (1.2 μM)+Beta-caryophyllene (100 ng/mL)+CBD (95 ng/ml); 9) Beta-caryophyllene (100 ng/mL)+CBD (95 ng/mL)+Tributyrin (10 μM); 10) Vitamin A, or “VitA” (1.2 μM)+Beta-caryophyllene (100 ng/mL).
(§3) As with single ingredients, two different treatment experiments occurred with these combos including: Cells treated with compounds 1-5 above for 3 hours. Cells treated with compounds 1-5 above for 12 hours with a concomitant TNF-alpha treatment (15 ng/ml)
(§4) All cells were grown to confluence using cell-specific media and additives.
(§5) The day of treatment, culture media was spiked with the appropriate ingredients (these are termed “treatment media”)
(§6) After either the 3-h or 12-h treatments described above, treatment media was removed, cells were rinsed with 1× phosphate-buffered saline, and general cell lysis buffer (Tris-based with detergent) was used to lyse cells
(§7) Cells were scraped off the plate with a rubber policeman in the lysis buffer, the slurry was placed in 1.7 mL tubes, and lysates were frozen at −80° C. until the respective assays discussed below.
(§8) There are n=5-6 replicates per treatment condition.
SOD2, SOD1, phosphorylated p65/NF-κB, pro-caspase 1, and NLRP3 were assayed using Western blotting methods.

PPARγ [1] = molecular target: T1, PPARγ (Mus musculus, UniProt P37238); assay: PPARγ DNA binding activity, AML-12 liver cells; conditions: vs DMSO control
T1 construct: endogenous in cells; host or cells: C2C12 myotubes (muscle cells)
T1 sequence (P37238 1-505): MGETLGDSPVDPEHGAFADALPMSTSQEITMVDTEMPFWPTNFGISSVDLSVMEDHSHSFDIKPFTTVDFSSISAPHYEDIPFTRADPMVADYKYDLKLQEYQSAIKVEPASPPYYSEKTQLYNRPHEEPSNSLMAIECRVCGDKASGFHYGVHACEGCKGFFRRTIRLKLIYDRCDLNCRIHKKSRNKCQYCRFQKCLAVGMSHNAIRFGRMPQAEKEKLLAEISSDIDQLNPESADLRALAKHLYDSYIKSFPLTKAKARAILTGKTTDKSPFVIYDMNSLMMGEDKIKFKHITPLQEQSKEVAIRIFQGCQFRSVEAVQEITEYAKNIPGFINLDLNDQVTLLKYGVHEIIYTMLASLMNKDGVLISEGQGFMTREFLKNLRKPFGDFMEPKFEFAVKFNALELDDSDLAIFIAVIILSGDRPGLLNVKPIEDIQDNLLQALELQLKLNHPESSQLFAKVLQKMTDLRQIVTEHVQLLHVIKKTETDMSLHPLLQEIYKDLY
Experimental: as §1, §2, §3, §4, §5, §6, §7, §8
(§9) PPARγ DNA binding activity was assessed using a plate that was pre-coated with a PPAR-gamma consensus binding sequence. Thereafter, antibody-based methods were used to assess the amount of bound transcription factor, and data were normalized to total protein loaded in the assay.

[2] = tested on: C2C12 myotubes (muscle cells); assay: Cellular glucose levels, colorimetric glucose oxidase assay, C2C12 muscle cells; conditions: 12 h treatment with TNF-alpha (15 ng/mL), vs DMSO control
Experimental: as §1, §2, §3, §4
(§10) The day of treatment, culture media was spiked with the appropriate ingredients (these are termed “treatment media”) […]

PPARγ [3] = molecular target: T1, PPARγ; assay: PPARγ DNA binding activity, C2C12 muscle cells; conditions: vs DMSO control
Experimental: as §1, §2, §3, §4, §5, §6, §7, §8, §9

SOD2 = SOD2 protein levels by Western blotting, C2C12 muscle cells; conditions: 3 h and 12 h with TNF-alpha, treatment not told apart in text, vs DMSO control
Experimental: as §1, §2, §3, §4, §10

AML-12 liver cells [4] = assay: Cellular glucose levels, colorimetric glucose oxidase assay, AML-12 liver cells; conditions: 12 h treatment with TNF-alpha (15 ng/mL), vs DMSO control
Experimental: as §1, §2, §3, §4, §10

AML-12 liver cells [5] = assay: Cellular antioxidant (AOx) capacity, Cu2+ ion conversion assay, AML-12 liver cells; conditions: 3 h treatment, vs DMSO control, CBD 95 ng/ml, VitA 1.2 μM, tributyrin 10 μM, beta-caryophyllene 100 ng/ml
Experimental: as §1, §2, §3, §4, §10
(§11) Total antioxidant capacity was assessed using a Cu2+ ion is conversion assay.

[6] = tested on: C2C12 myotubes (muscle cells); assay: Cellular antioxidant (AOx) capacity, Cu2+ ion conversion assay, C2C12 muscle cells; conditions: vs DMSO control
Experimental: as §1, §2, §3, §4, §10, §11

[7] = 12 h treatment with TNF-alpha (15 ng/mL)

C=C1CC/C=C(\C)CC[C@@H]2[C@@H]1CC2(C)C [BCP, beta-caryophyllene]
NF-kB phosphorylation vs control (phosphorylated p65/NF-κB; [7]): significant values in reducing NF-kB phosphorylation
PPARγ DNA binding activity vs control (PPARγ [1]; 3 h treatment): significance values greater than control group

CCCC(=O)OCC(COC(=O)CCC)OC(=O)CCC [tributyrin, Tributyrin]
NF-kB phosphorylation vs control (phosphorylated p65/NF-κB; [7]): significant values in reducing NF-kB phosphorylation
Cellular glucose levels vs control [2]: increases cell glucose
PPARγ DNA binding activity vs control (PPARγ [3]; [7]): values of greater significance than the control
SOD2 protein levels vs control (SOD2): significance value less the control
PPARγ DNA binding activity vs control (PPARγ [1]; 3 h treatment): significance values greater than control group
PPARγ DNA binding activity vs control (PPARγ [1]; [7]): significance value greater than control group
Cellular glucose levels vs control (AML-12 liver cells [4]): increases cell glucose

CCCCCCCCCCCCCCCC(=O)OC/C=C(C)/C=C/C=C(C)/C=C/C1=C(C)CCCC1(C)C [vitamin A, Retinyl palmitate]
Cellular AOx capacity vs control (AML-12 liver cells [5]): showed an antioxidant capacity
PPARγ DNA binding activity vs control (PPARγ [3]; 3 h treatment): significance value greater than control group
PPARγ DNA binding activity vs control (PPARγ [1]; 3 h treatment): significance values greater than control group
Cellular AOx capacity vs control ([6]; 3 h treatment, CBD 95 ng/ml, VitA 1.2 μM, tributyrin 10 μM, beta-caryophyllene 100 ng/ml): expressed significance values

cannabidiol [CBD]
Cellular AOx capacity vs control (AML-12 liver cells [5]): expressed results with significance value
NF-kB phosphorylation vs control (phosphorylated p65/NF-κB; 3 h treatment): the only one with significant value among the ingredients
PPARγ DNA binding activity vs control (PPARγ [3]; [7]): values of greater significance than the control
SOD2 protein levels vs control (SOD2): significance value less the control
Cellular AOx capacity vs control [6, 7]: expressed significance value
